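Step 1: Grow cells in 96-well plates. Step 2: Expose to compound for 48 hours at 5 concentrations. Step 3: Interpolate endpoints linearly; if unreached, use highest concentration. The concentration for 50% growth inhibition is given as GI50.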 Activity calls are given as the source filed them. Rule as the data show it: active = GI50 up to about 1.1 µM and inactive = higher.
What was measured:
Experiment in all cases: NCI tumour cell line growth inhibition, 48 h
TK-10 = test system: TK-10
HCT-116 = test system: HCT-116
NCI-H23 = test system: NCI-H23
CAKI-1 = test system: CAKI-1
UACC-257 = test system: UACC-257
OVCAR-4 = test system: OVCAR-4
SK-MEL-2 = test system: SK-MEL-2
SNB-78 = test system: SNB-78
HCC 2998 = test system: HCC 2998
EKVX = test system: EKVX
SN12C = test system: SN12C
A498 = test system: A498
NCI-H522 = test system: NCI-H522
LOX IMVI = test system: LOX IMVI
SNB-75 = test system: SNB-75
HOP-92 = test system: HOP-92
MCF7 = test system: MCF7
PC-3 = test system: PC-3
NCI/ADR-RES = test system: NCI/ADR-RES
MDA-N = test system: MDA-N

Structure (SMILES)	GI50 (TK-10)	GI50 (HCT-116)	GI50 (NCI-H23)	GI50 (CAKI-1)	GI50 (UACC-257)	GI50 (OVCAR-4)	GI50 (SK-MEL-2)	GI50 (SNB-78)	GI50 (HCC 2998)	GI50 (EKVX)	GI50 (SN12C)	GI50 (A498)	GI50 (NCI-H522)	GI50 (LOX IMVI)	GI50 (SNB-75)	GI50 (HOP-92)	GI50 (MCF7)	GI50 (PC-3)	GI50 (NCI/ADR-RES)	GI50 (MDA-N)
CCCOCN1COCN/C1=N\C#N	> 100 µM (inactive)	84.1 µM (inactive)	> 100 µM (inactive)	> 100 µM (inactive)	> 100 µM (inactive)	32.1 µM (inactive)	> 100 µM (inactive)	> 100 µM (inactive)	> 100 µM (inactive)	> 100 µM (inactive)	> 100 µM (inactive)	> 100 µM (inactive)	> 100 µM (inactive)	24.5 µM (inactive)	> 100 µM (inactive)	> 100 µM (inactive)	–	–	–	–
Cc1ccc(Sc2ccc(C)cc2[N+](=O)[O-])c([N+](=O)[O-])c1	> 100 µM (inactive)	> 100 µM (inactive)	> 100 µM (inactive)	> 10 µM (inactive)	> 10 µM (inactive)	> 100 µM (inactive)	> 100 µM (inactive)	> 100 µM (inactive)	> 100 µM (inactive)	> 100 µM (inactive)	> 100 µM (inactive)	> 100 µM (inactive)	> 100 µM (inactive)	> 100 µM (inactive)	46.5 µM (inactive)	> 100 µM (inactive)	–	–	–	–
COc1cc(NS(C)(=O)=O)ccc1Nc1c2ccccc2nc2c1[nH]c1ccc(NC3OC(CO)C(O)C(O)C3O)cc12 (configuration not stated)	0.197 µM (active)	0.0472 µM (active)	0.0215 µM (active)	< 0.01 µM (active)	0.74 µM (active)	1.36 µM (inactive)	0.269 µM (active)	1.27 µM (inactive)	0.169 µM (active)	0.782 µM (active)	0.0203 µM (active)	0.129 µM (active)	0.0923 µM (active)	< 0.0154 µM (active)	0.0251 µM (active)	0.0224 µM (active)	0.023 µM (active)	0.0908 µM (active)	2.39 µM (inactive)	0.474 µM (active)

From ChEMBL document CHEMBL1201862, “PubChem BioAssay data set” (2004)
